According to the supplement of paper PMC10307832:

Tests used:
Assay in all cases: relative viability (nuclei count vs DMSO), 5 days (fraction); higher = more cells survive
[1] = compound: CC1(C)CCC(CN2CCN(c3ccc(C(=O)NS(=O)(=O)c4ccc(NCC5CCOCC5)c([N+](=O)[O-])c4)c(Oc4cnc5[nH]ccc5c4)c3)CC2)=C(c2ccc(Cl)cc2)C1 [Venetoclax] + Cc1cc(Nc2cc(N3CCN(C)CC3)nc(Sc3ccc(NC(=O)C4CC4)cc3)n2)n[nH]1 [Tozasertib] (partner 0.1 µM)
Summary of the method: (§1)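 A single step with final 0.05% Triton X-100, 1% formaldehyde and 1 ug/ml Hoechst fixed the cells and stained nuclei 5 days after treatment. Lung cancer cell lines in 1536-well plates had been treated by pin tool the day after seeding with one drug alone or a fixed anchor-drug dose plus five library-drug doses (not always all listed) in √10 steps, and nuclei were counted on 4× images. Relative viability is the ratio of nuclei in treated wells to nuclei in vehicle wells, taken as the median of duplicate plates.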

[2] = compound: CC1(C)CCC(CN2CCN(c3ccc(C(=O)NS(=O)(=O)c4ccc(NCC5CCOCC5)c([N+](=O)[O-])c4)c(Oc4cnc5[nH]ccc5c4)c3)CC2)=C(c2ccc(Cl)cc2)C1 [Venetoclax] + NC(=O)Nc1cc(-c2cccc(F)c2)sc1C(=O)N[C@H]1CCCNC1 [AZD7762] (partner 0.2 µM)
Summary of the method: as §1

[3] = compound: Cn1cnc2c(F)c(Nc3ccc(Br)cc3Cl)c(C(=O)NOCCO)cc21 [Selumetinib] + N=C(N)NC(=N)NCCc1ccccc1 [Phenformin] (partner 250 µM)
Summary of the method: as §1

[4] = compound: CC1(C)CCC(CN2CCN(c3ccc(C(=O)NS(=O)(=O)c4ccc(NCC5CCOCC5)c([N+](=O)[O-])c4)c(Oc4cnc5[nH]ccc5c4)c3)CC2)=C(c2ccc(Cl)cc2)C1 [Venetoclax] + Nc1nc2[nH]cc(CCc3ccc(C(=O)N[C@@H](CCC(=O)O)C(=O)O)cc3)c2c(=O)[nH]1 [Pemetrexed] (partner 0.2 µM)
Summary of the method: as §1

| Cell Line | relative viability ([1]; first compound 0.01 µM) | relative viability ([1]; first compound 0.03162 µM) | relative viability ([1]; first compound 0.1 µM) | relative viability ([1]; first compound 0.3162 µM) | relative viability ([1]; first compound 1 µM) | relative viability ([2]; first compound 0.01 µM) | relative viability ([2]; first compound 0.03162 µM) | relative viability ([2]; first compound 0.1 µM) | relative viability ([2]; first compound 0.3162 µM) | relative viability ([2]; first compound 1 µM) | relative viability ([3]; first compound 0.02 µM) | relative viability ([3]; first compound 0.06325 µM) | relative viability ([3]; first compound 0.2 µM) | relative viability ([3]; first compound 0.6325 µM) | relative viability ([4]; first compound 0.01 µM) | relative viability ([4]; first compound 0.03162 µM) | relative viability ([4]; first compound 0.1 µM) | relative viability ([4]; first compound 0.3162 µM) | relative viability ([4]; first compound 1 µM) |
| --- | --- | --- | --- | --- | --- | --- | --- | --- | --- | --- | --- | --- | --- | --- | --- | --- | --- | --- | --- |
| 201T | 0.826 | 0.957 | 0.945 | 0.91 | 0.941 | 0.572 | 0.634 | 0.612 | 0.644 | 0.639 | 0.507 | 0.406 | 0.455 | 0.421 | 0.283 | 0.309 | 0.33 | 0.329 | 0.366 |
| A549 | – | – | – | – | – | – | – | – | – | – | 0.132 | 0.14 | 0.143 | 0.0906 | – | – | – | – | – |
| A-427 | 0.203 | 0.24 | 0.212 | 0.201 | 0.186 | 0.752 | 0.762 | 0.674 | 0.784 | 0.709 | 0.264 | 0.271 | 0.266 | 0.23 | 0.988 | 0.967 | 1.03 | 1.04 | 0.978 |
| ABC-1 | 0.16 | 0.17 | 0.178 | 0.156 | 0.219 | 0.631 | 0.955 | 0.929 | 0.888 | 0.878 | 0.228 | 0.231 | 0.234 | 0.25 | – | – | – | – | – |
| BEN | 0.426 | 0.476 | 0.373 | 0.476 | 0.38 | 0.771 | 0.746 | 0.611 | 0.836 | 0.637 | 0.281 | 0.315 | 0.252 | 0.257 | 0.811 | 0.826 | 0.712 | 0.855 | 0.769 |
| CAL-12T | 0.302 | 0.346 | 0.28 | 0.222 | 0.19 | 0.584 | 0.644 | 0.638 | 0.636 | 0.435 | 0.469 | 0.392 | 0.393 | 0.353 | 0.965 | 1.23 | 1.14 | 1.22 | 1.19 |
| COR-L23 | 0.206 | 0.217 | 0.231 | 0.16 | 0.182 | – | – | – | – | – | 0.464 | 0.469 | 0.519 | 0.463 | 0.181 | 0.177 | 0.189 | 0.199 | 0.197 |
| COR-L 105 | 0.274 | 0.397 | 0.321 | 0.32 | 0.335 | – | – | – | – | – | 0.355 | 0.321 | 0.331 | 0.297 | 0.738 | 1.03 | 1.11 | 1.16 | 1.07 |
| ChaGo-K-1 | 0.236 | 0.218 | 0.224 | 0.208 | 0.227 | 0.884 | 0.854 | 0.849 | 0.888 | 0.85 | 0.484 | 0.555 | 0.465 | 0.461 | 0.257 | 0.26 | 0.255 | 0.26 | 0.263 |
| EKVX | 0.403 | 0.392 | 0.435 | 0.324 | 0.309 | 0.698 | 0.766 | 0.743 | 0.695 | 0.671 | 0.22 | 0.217 | 0.214 | 0.22 | 0.471 | 0.402 | 0.351 | 0.427 | 0.35 |
| EMC-BAC-2 | 0.3 | 0.285 | 0.28 | 0.273 | 0.259 | 1.11 | 1.15 | 1.07 | 1.08 | 1.03 | 0.559 | 0.583 | 0.552 | 0.537 | 0.406 | 0.457 | 0.407 | 0.467 | 0.417 |
| EPLC-272H | 0.339 | 0.391 | 0.311 | 0.452 | 0.336 | 0.192 | 0.188 | 0.229 | 0.318 | 0.225 | 0.26 | 0.223 | 0.211 | 0.223 | 0.361 | 0.316 | 0.356 | 0.412 | 0.36 |
| H3255 | 0.564 | 0.525 | 0.615 | 0.591 | 0.745 | 0.875 | 0.999 | 0.944 | 0.901 | 0.782 | 0.385 | 0.367 | 0.332 | 0.318 | 0.584 | 0.615 | 0.526 | 0.603 | 0.562 |
| HARA | 0.0626 | 0.109 | 0.0841 | 0.116 | 0.106 | 0.299 | 0.214 | – | 0.25 | 0.285 | 0.502 | 0.387 | 0.48 | 0.299 | 0.216 | 0.247 | – | 0.329 | 0.284 |
| HCC-15 | 0.45 | 0.47 | 0.371 | 0.324 | 0.273 | 1.29 | 1.28 | 1.15 | 1.16 | 1.36 | 0.37 | 0.284 | 0.231 | 0.185 | 0.24 | 0.236 | 0.217 | 0.217 | 0.201 |
| HCC-44 | 0.747 | 0.978 | 0.894 | 0.791 | 0.715 | 1.01 | 0.99 | 1.04 | 0.929 | 0.924 | 0.179 | 0.187 | 0.209 | 0.184 | 0.667 | 0.673 | 0.63 | 0.649 | 0.656 |
| HCC-78 | 0.349 | 0.454 | 1.29 | 0.404 | 0.497 | 0.667 | 0.818 | 0.738 | 0.577 | 0.539 | 0.667 | 0.74 | 0.601 | 0.677 | 0.896 | 0.875 | 0.965 | 0.935 | 0.881 |
| HCC-366 | 0.094 | 0.119 | 0.123 | 0.0769 | 0.0514 | 0.332 | 0.202 | 0.214 | 0.25 | 0.141 | 0.594 | 0.607 | 0.512 | 0.361 | 0.16 | 0.16 | 0.172 | 0.186 | 0.197 |
